Here are results for two molecules from patent publication US9993493B2, “Composition for prevention, amelioration or treatment of metabolic syndrome” (HOUSE WELLNESS FOODS CORPORATION, priority 2010, dated 2018).

Holding throughout (format): in vivo, male KK mice
Test [1] has as its system diet-induced obese mice. Nature of the test: Test Example 2: glucosyl hesperidin and caffeine mixtures (10:1, 20:1, 40:1) fed in low-calorie feed to diet-induced obese mice. The note with it: vs control group, caffeine 0.0125 mass %, glucosyl hesperidin 0.25 mass %; for weight of subcutaneous fat tissue / weight of mesenteric (visceral) fat tissue: 2 weeks low-calorie feed; for weight of subcutaneous fat tissue: FIG. 6; for weight of mesenteric (visceral) fat tissue: FIG. 7; for changes in body weight: before and after 2 weeks low-calorie feed, FIG. 4. The text has this:
Under the same conditions as in Test Example 1, the effect of the composition of the present invention comprising glucosyl hesperidin and caffeine was investigated. The glucosyl hesperidin and caffeine used here were the same as in Test Example 1.
Five-week-old male KK mice were fed with water and a powder feed for breeding (CE-2 (trade name), made by CLEA Japan, Inc.) for one week, and then fed with the high-calorie feed (4.70 kcal/g) in Table 1 for 3 weeks for induction of obesity. The mice were divided into 6 groups (a control group, a caffeine administration group, a glucosyl hesperidin administration group, and mixture of caffeine and glucosyl hesperidin (present invention) administration groups, 6 to 7 mice per group) and fed with the low-calorie feed (3.16 kcal/g) in Table 1 or the low-calorie feed supplemented with the corresponding test sample for 2 weeks, in expectation of using body fat. The feeds given to the test groups are as follows. • (1) Control group; low-calorie feed • (2) Caffeine administration group; low-calorie feed+0.0125 mass % of caffeine • (3) Glucosyl hesperidin administration group; low-calorie feed+0.25 mass % of glucosyl hesperidin • (4) Mixture of glucosyl hesperidin and caffeine (10:1) administration group; low-calorie feed+(0.25 mass % of glucosyl hesperidin+0.025 mass % of caffeine) • (5) Mixture of glucosyl hesperidin and caffeine (20:1) administration group; low-calorie feed+(0.25 mass % of glucosyl hesperidin+0.0125 mass % of caffeine) • (6) Mixture of glucosyl hesperidin and caffeine (40:1) administration group; low-calorie feed+(0.25 mass % of glucosyl hesperidin+0.00625 mass % of caffeine)
During the test period (2 weeks from the start of low-calorie feeding), body weight and feed intake were periodically measured. After the end of the test, the mice were euthanized, and subcutaneous fat tissue and mesenteric (visceral) fat tissue were removed and separately weighed.
The changes in body weight before and after the test period is shown in FIG. 4, the feed intake during the first 10 days of the test period is shown in FIG. 5, the weight of subcutaneous fat tissue per 100 g of body weight is shown in FIG. 6, and the weight of mesenteric fat tissue per 100 g of body weight is shown in FIG. 7. The results are shown as Mean±SD of each group. The $, **, and * in the figures indicate a significant difference with a risk less than 10%, a risk less than 1%, and a risk less than 5% from the control, respectively.

For test [2], the system named is diet-induced obese mice. Nature of the test: Test Example 1: glucosyl hesperidin and caffeine fed in low-calorie feed to diet-induced obese mice. The note with it: vs control group, caffeine 0.025 mass %, glucosyl hesperidin 0.25 mass %, mixture 0.25+0.025 mass %; for weight of mesenteric (visceral) fat tissue: 2 weeks low-calorie feed, FIG. 3; for changes in body weight: before and after 2 weeks low-calorie feed, FIG. 1. An excerpt: In such a situation, the effect of the composition of the present invention comprising glucosyl hesperidin and caffeine was investigated. As the glucosyl hesperidin and caffeine, “Hayashibara Hesperidin S (trade name)” (distributor: Hayashibara Co., Ltd.) and “Chanomoto (trade name)” (purity of caffeine: 98.5%, made by Shiratori Pharmaceutical Co., Ltd.) were used, respectively.
Five-week-old male KK mice were fed with water and a powder feed for breeding (CE-2 (trade name), made by CLEA Japan, Inc.) for one week, and then fed with the high-calorie feed (4.70 kcal/g) in Table 1 shown below for 3 weeks for induction of obesity. The mice were divided into 4 groups (a control group, a caffeine administration group, a glucosyl hesperidin administration group, and a present invention administration group (caffeine+glucosyl hesperidin), 5 to 8 mice per group) and fed with the low-calorie feed (3.16 kcal/g) in Table 1 shown below or the low-calorie feed supplemented with the corresponding test sample for 2 weeks, in expectation of using body fat. The feeds given to the test groups are as follows. • (1) Control group; low-calorie feed • (2) Caffeine administration group; low-calorie feed+0.025 mass % of caffeine • (3) Glucosyl hesperidin administration group; low-calorie feed+0.25 mass % of glucosyl hesperidin • (4) Present invention (mixture of glucosyl hesperidin and caffeine (10:1)) administration group; low-calorie feed+(0.25 mass % of glucosyl hesperidin+0.025 mass % of caffeine)
During the test period (2 weeks from the start of low-calorie feeding), body weight and feed intake were periodically measured. After the end of the test, the mice were euthanized, and mesenteric (visceral) fat tissue was removed and weighed.
The changes in body weight before and after the test period is shown in FIG. 1, the feed intake during the first 10 days of the test period is shown in FIG. 2, and the weight of mesenteric fat tissue per 100 g of body weight is shown in FIG. 3. The results are shown as Mean±SD of each group. The ** and * in the figures indicate a significant difference with a risk less than 1% and a risk less than 5% from the control, respectively.

In test [3] the test system is diet-induced obese mice. Nature of the test: Test Example 3: Oligonol and caffeine fed in low-calorie feed to diet-induced obese mice. The note with it: vs control group, caffeine 0.025 mass %, Oligonol 0.1 mass %, mixture 0.1+0.025 mass %. The text has this:
As the polyphenol containing 15 mass % or more of proanthocyanidin having a polymerization degree of 1 to 3 and caffeine, “Oligonol (trade name)” (distributor: […] Five-week-old male KK mice were fed with water and a powder feed for breeding (CE-2 (trade name), made by CLEA Japan, Inc.) for one week, and then fed with the high-calorie feed (4.70 kcal/g) in Table 1 for 3 weeks for induction of obesity. […] The feeds given to the test groups are as follows. • (1) Control group; low-calorie feed • (2) Caffeine administration group; low-calorie feed+0.025 mass % of caffeine • (3) Oligonol administration group; low-calorie feed+0.1 mass % of Oligonol • (4) Present invention (mixture of Oligonol and caffeine (4:1)) administration group; low-calorie feed+(0.1 mass % of Oligonol+0.025 mass % of caffeine) During the test period (2 weeks from the start of low-calorie feeding), body weight and feed intake were periodically measured. After the end of the test, the mice were euthanized, and subcutaneous fat tissue, epididymal fat tissue, and mesenteric (visceral) fat tissue were removed and separately weighed. Also, at the start of the test period (the start of low-calorie feeding) and the end of the test period, plasma triglyceride level was measured. The changes in body weight before and after the test period is shown in FIG. 8, the feed intake during the first 10 days of the test period is shown in FIG. 9, the total weight of subcutaneous, epididymal, and mesenteric fat tissues per 100 g of body weight is shown in FIG. 10, and the changes in plasma triglyceride level before and after the test period is shown in FIG. 11. The results are shown as Mean±SD of each group.

In the case of glucosyl hesperidin, in the test with diet-induced obese mice [1], the “weight of subcutaneous fat tissue” value is reported as “did not show any significant difference”, the “weight of mesenteric (visceral) fat tissue” value (from here on “weight of mesenteric”) is listed as “did not show any significant difference” and the “changes in body weight” value was “values equivalent to those of the control group”. Also, in the test on diet-induced obese mice [2], the “weight of mesenteric” value is given as “did not show any significant difference” and the “changes in body weight” value was “equivalent values”.
With `Cn1c(=O)c2c(ncn2C)n(C)c1=O` [caffeine], the “weight of subcutaneous fat tissue” value in the test on diet-induced obese mice [1] is listed as “did not show any significant difference”. For the same molecule, the “weight of mesenteric” value in the test on diet-induced obese mice [1] and with diet-induced obese mice [2] was “did not show any significant difference” each time. Also, the “changes in body weight” value with diet-induced obese mice [1] was “values equivalent to those of the control group”; in the test with diet-induced obese mice [3] (before and after 2 weeks low-calorie feed, FIG. 8), “lower values”; with diet-induced obese mice [2] it was “significantly lower values”. For the same molecule, the “total weight of fat tissues (subcutaneous, epididymal, and mesenteric)” value in the test with diet-induced obese mice [3] (2 weeks low-calorie feed, FIG. 10) is “did not show any significant difference”. Moreover, the “plasma triglyceride level measured on the 14th day” value in the test on diet-induced obese mice [3] (14th day of low-calorie feed, FIG. 11) was “did not show any significant difference”.
